Measured values as given in US20210069295A1, “GALECTINS CONTROL MTOR IN RESPONSE TO ENDOMEMBRANE DAMAGE AND PROVIDE A MECHANISM AND TARGET FOR THE TREATMENT OF AUTOPHAGY-RELATED DISEASES” (STC. UNM, priority 2017, published 2021).
Peptide text beside a SMILES is read from it.

What was measured:
mTOR = mTOR activity by immunoblotting of S6K1 (T389) and ULK1 (S757) phosphorylation in HEK293T cells; type: cell-based
Procedure: (A) Dose-response analysis of mTOR activity in HEK293T cells treated with glycyl-L-phenylalanine 2-naphththylamide (GPN) in full medium for 1 h. mTOR activity was monitored by inununoblotting analysis of S6K1 (T389) and ULK1 (S757) phosphorylation (phosphorylated S6K (T389) and ULK1 (S757) relative to total S6K and ULK1, respectively). (B) Analysis of mTOR activity (as in A) after GPN washout. HEK293T cells were treated with 100 μM GPN for 1 h followed by 1 h washout in full medium. Data, means±SEM (n=3), **p<0.01, ANOVA. (C) Analysis of mTOR activity (as in A) in HEK293T cells treated with increasing doses of silica in full medium for 1 h. (D) HEK293T cells were treated with lysosomal damaging agents (LLOMe, Leu-Leu-OMe) for 1 h in full medium and status of acidified organelles assessed by quantifying LysoTracker Red DND-99 puncta using automated high-content imaging and analysis (HC). None-treated cells were as control (Ctrl). White masks, algorithm defined cell boundaries (primary objects); yellow masks, computer-identified LysoTracker Red puncta (target objects). Data, means±SEM, n≥3 independent experiments (500 primary objects counted per well; ≥5 wells/sample per each experiment), **p<0.01, ANOVA. (E) Analysis of mTOR activity in primary human macrophages treated with GPN. Human peripheral blood monocyte derived macrophages were treated with 100 μM GPN in full medium or starved in EBSS for 1 h, and mTOR activity measured as in A. None-treated cells were as control (Ctrl). (F) Quantification by HC of overlaps between mTOR and LAMP2 (representative images shown in FIG. S1D) in HeLa cells treated with lysosomal damaging agents for 1 h in full medium. Data, means±SEM, n≥3 independent experiments (500 primary objects counted per well; ≥5 wells/sample per each experiment) **p<0.01, ANOVA. (G) Immunofluorescence confocal microscopy visualization of mTOR localization relative to LAMP2-positive lysosomes. […] (H) Analysis of TFEB nuclear translocation in HeLa cells treated with 100 μM GPN in full medium for 1 h, and the nuclear translocation of TFEB was measured by HC (Nuclei, Hoechst 33342, blue pseudocolor; TFEB red fluorescence, Alexa-568). […] White masks, computer algorithm-defined cell boundaries (primary objects); pink masks, computer-identified nuclear TFEB based on the average intensity of Alexa-568 fluorescence. Data, means±SEM, n≥3 independent experiments (500 primary objects counted per well; ≥5 wells/sample per each experiment), **p<0.01, ANOVA. (I) HeLa cells were treated as indicated in full medium for 1 h, and LC3 puncta were quantified by HC. […] Data, means±SEM, n≥3 independent experiments (500 primary objects counted per well; ≥5 wells/sample per each experiment), **p<0.01, ANOVA. […]

Gal8 = test: Immunoprecipitation of endogenous Gal8 complexes in THP-1 cells; type: cell-based; conditions: 100 μM GPN 1 h
Procedure: (A) Analysis of the puncta formation of galectins in response to GPN. HeLa cells overexpressing YFP-fused with the indicated galectins were treated with 100 μM GPN or without (Ctrl) in full medium for 1 h and galectin puncta were quantified by HC. […] White masks, algorithm defined cell boundaries (primary objects); green masks, computer-identified galectins puncta (target objects). Data, means±SEM, n≥3 independent experiments (500 primary objects counted per well; ≥5 wells/sample per each experiment); *p<0.05, **p<0.01, † p≥0.05, ANOVA. (B) Immunoprecipitation analysis of the interactions between galectins and mTOR or RagA GTPase. HEK293T cells overexpressing FLAG-tagged galectins were subjected to anti-FLAG immunoprecipitation followed by immunoblotting for endogenous mTOR or RagA. (C) Immunoprecipitation analysis of interactions between Gal8 and mTOR protein complexes in response to GPN treatment. THP-1 cells not treated or treated with 100 μM GPN in full medium for 1 h were subjected to immunoprecipitation with anti-Gal8 antibody, followed by immunoblotting for endogenous RagA, p14, mTOR or Raptor. (D) Analysis of the proximity of Gal8 to mTOR and other proteins in mTOR complexes in response to GPN. Biotinylated proteins from HEK293T cell expressing APEX2-vector or APEX2-Gal8, after GPN and biotin phenol (BP) treatment were affinity-enriched by binding to streptavidin-beads, and samples were analyzed by immunoblotting analysis for endogenous RagA, p14, mTOR or Raptor. Data, means±SEM, (n=3), **p<0.01, ANOVA. (E) Immunoprecipitation analysis of the interactions between Gal8 and RagA GTPase and its mutants. Lysates of HEK293T cells overexpressing FLAG-Gal8 and HA-tagged RagA proteins (RagAWT, RagAT21L or RagAQ66L) were subjected to anti-FLAG immunoprecipitation, followed by immunoblotting for HA-tagged RagA proteins. (F) Immunoprecipitation analysis of the interactions between Gal8 and RagC GTPase and its mutants. […]

NCC(=O)N[C@@H](Cc1ccccc1)C(=O)Nc1ccc2ccccc2c1 [GPN, glycyl-L-phenylalanine 2-naphththylamide] (HELM PEPTIDE1{G.F.[c1ccc2cc(N[*:1])ccc2c1]}$$$$V2.0)
mTOR activity after washout (mTOR; 100 μM GPN for 1 h followed by 1 h washout in full medium): reversed | mTOR activity (phosphorylation of its substrates S6K1 and ULK1) (mTOR; HEK293T cells, full medium, 1 h): diminished mTOR activity | mTOR activity (S6K1 phosphorylation) in cells expressing constitutively active RagBQ99L (mTOR; HEK293T stably expressing RagBQ99L, 100 μM GPN 1 h): not the case | association between Gal8 and LAMTOR2/p14 (Gal8): increased association | association between Gal8 and RagA (Gal8): increased | levels of Raptor and mTOR in complexes with Gal8 (Gal8): reduced levels
